Measurements from PubChem BioAssay (NCI).
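96-well plates; 48 h exposure; 5 concentrations. Endpoints by linear interpolation between flanking doses. Not reached: highest tested concentration assigned. The concentration for full growth arrest is given as TGI.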

Assays:
Test in all cases: NCI tumour cell line growth inhibition, 48 h
[1] = tested on: DMS 273 small cell lung
[2] = tested on: P388 leukemia
[3] = tested on: M19-MEL melanoma
[4] = tested on: SNB-78 CNS
[5] = tested on: HCC-2998 colon
[6] = tested on: XF 498 CNS
[7] = tested on: DLD-1 colon
[8] = tested on: HOP-92 NSCLC
[9] = tested on: CCRF-CEM leukemia
[10] = tested on: NCI-H226 lung
[11] = tested on: MDA-MB-231 breast
[12] = tested on: TK-10 renal
[13] = tested on: T-47D breast
[14] = tested on: ACHN renal
[15] = tested on: CAKI-1 renal
[16] = tested on: PC-3 prostate
[17] = tested on: BT-549 breast
[18] = tested on: SR leukemia
[19] = tested on: DU-145 prostate
[20] = tested on: HS 578T breast

SMILES | TGI [1] | TGI [2] | TGI [3] | TGI [4] | TGI [5] | TGI [6] | TGI [7] | TGI [8] | TGI [9] | TGI [10] | TGI [11] | TGI [12] | TGI [13] | TGI [14] | TGI [15] | TGI [16] | TGI [17] | TGI [18] | TGI [19] | TGI [20]
O=S(=O)(O)c1cc2ccc1/C=C\c1ccc(cc1S(=O)(=O)O)N=Nc1ccc(c(S(=O)(=O)O)c1)/C=C\c1ccc(cc1S(=O)(=O)O)N=N2 | > 100 µM | > 100 µM | > 100 µM | > 100 µM | > 100 µM | > 100 µM | > 100 µM | > 100 µM | > 100 µM | > 100 µM | – | – | – | – | – | – | – | – | – | –
COc1nc(C#CCC(C)O)nc(OC)n1 (stereo not given) | – | – | – | – | – | – | – | – | – | – | 52 µM | 57.7 µM | > 100 µM | 33.3 µM | 31.9 µM | 54.6 µM | 36 µM | > 100 µM | 52.8 µM | 72 µM
